Measured values: patent US20130261045A1, “GREEN TEA POLYPHENOL ALPHA SECRETASE ENHANCERS AND METHODS OF USE” (UNIVERSITY OF SOUTH FLORIDA, priority 2005, published 2013)

Experiments:
transgenic APPsw mice = assay: EGCG IP treatment of transgenic APPsw mice (brain Aβ, APP fragments, secretase activity, plaques); type: in vivo, mouse
Protocol: Soluble Aβ (FIG. 4B) and insoluble Aβ prepared with 5 M guanidine (FIG. 4C) were analyzed by ELISA. Data are represented as mean+/−SEM of Aβ (pg/mg protein). […] (FIG. 4D) α-, β- and γ-secretase cleavage activities were analyzed by secretase cleavage activity kits. Data are presented as mean+/−SEM of fluorescence units/mg protein. […] (FIG. 4E) Mouse brain paraffin sections stained with anti-human Aβ antibody (4G8); left control PBS-treated mice. […] Top, cingulated cortex (CC); Middle, hippocampus (H); Bottom, entorhinal cortex (EC). […] (FIG. 4F) illustrates bar graphs comparing the Aβ burden (%) for transgenic APPsw mice treated with two different compounds.
Cultured cells were lysed in ice-cold-lysis buffer (20 mM Tris, pH 7.5, 150 mM NaCl, 1 mM EDTA, 1 mM EGTA, 1% v/v Triton X-100, 2.5 mM sodium pyropgosphate, 1 mM β-glycerolphosphate, 1 mM Na3VO4, 1 μg/mL leupeptin, 1 mM PMSF) as previously described (Tan et al., 2002). Mouse brains were isolated under sterile conditions on ice and placed in ice-cold lysis buffer. Brains were then sonicated on ice for approximately 3 min, allowed to stand for 15 min at 4° C., and centrifuged at 15,000 rpm for 15 min. Total Aβ1-42 species were detected by acid extraction of brain homogenates in 5 M guanidine buffer (ret), followed by a 1:10 dilution in lysis buffer. Soluble Aβ1-42 was directly detected in cultured cell lysates or brain homogenates prepared with lysis buffer described above by a 1:4 or 1:10 dilution, respectively. Aβ1-42 was quantified in these samples using the Aβ1-42 ELISA kit (BioSource, Camarillo, Calif.) in accordance with the manufacturer's instructions, except that standards included a 0.5 M guanidine buffer.
Cultured cells and mouse brain were lysed in ice-cold lysis buffer described above, and an aliquot corresponding to 50 μg of total protein was electrophoretically separated using 16.5% Tris-tricine gels. Electrophoresed proteins were then transferred to PVDF membranes (Bio-Rad), washed in dH2O, and blocked for 1 hour at ambient temperature in Tris-buffered saline (TBS; Bio-Rad) containing 5% (w/v) for non-fat dry milk. After blocking, membranes were hybridized for 1 hour at ambient temperature with various antibodies, including against the C- (369), N-terminus of APP (22C11), the N-terminus of Aβ (6E10), and ADAM10 and TACE (Calbiochem). Membranes were then washed 3× for 5 min each in dH2O and incubated for 1 hour at ambient temperature with the appropriate HRP-conjugated secondary antibody (1:1,000, Pierce Biotechnology, Inc. Rockford, Ill.). All antibodies were diluted in TBS containing 5% (w/v) of non-fat dry milk. Blots were developed using the luminal reagent (Pierce Biotechnology). Densitometric analysis was done using the Fluor-S Multimager™ with Quantity One™ software (Bio-Rad). Immunoprecipitation was performed for detection of sAPP-α, sAPP-β and Aβ by incubating 200 μg of total protein of each sample with 6E10 (1:100; Signet) or 22C11 (1:100; Roche, Basel, Switzerland) overnight with gentle rocking at 4° C., and 10 μL of 50% protein A-Sepharose beads were then added to the sample (1:10; Sigma) prior to gentle rocking for an additional 4 hours at 4° C. Following washes with 1× cell lysis buffer, samples were subjected to Western blot as described above. Antibodies used for Western blot included antibody 369 (1:1,000), anti-C-terminal APP antibody (1:500; Chemicon, Temecula, Calif.), BAM-10 (1:1,000; Sigma), 6E10 (1:1,000; Signet) or anti-Actin antibody (1:1,500; as an internal reference control; Roche). α-, β- and γ-secretase activities were quantified in cell lysates and mouse brain homogenates using available kits based on secretase-specific peptides conjugated to fluorogenic receptor molecules (R&D Systems, Minneapolis, Minn.).

TNF-α = TNF-α levels in cultured medium of microglial cells; type: cell-based; details: EGCG treatment, data not shown
Source text: It has been shown that TACE is critically involved in TNF-α maturation associated with pro-inflammatory responses (Moro, M. A. et al., 2003).

ADAM17 = assay: Western blot of ADAM17 in SweAPP N2a cells; type: cell-based, murine; details: EGCG treatment; data not shown
Protocol: Cultured cells were lysed in ice-cold lysis buffer described above, and an aliquot corresponding to 50 μg of total protein was electrophoretically separated using 16.5% Tris-tricine gels. Electrophoresed proteins were then transferred to PVDF membranes (Bio-Rad, Richmond, Calif.), washed in ddH2O, and blocked for 1 h at ambient temperature in Tris-buffered saline (TBS; Bio-Rad) containing 5% (w/v) non-fat dry milk. After blocking, membranes were hybridized for 1 h at ambient temperature with various primary antibodies. Membranes were then washed 3 times for 5 min each in ddH2O and incubated for 1 h at ambient temperature with the appropriate HRP-conjugated secondary antibody (1:1,000, Pierce Biotechnology, Inc. Rockford, Ill.). All antibodies were diluted in TBS containing 5% (w/v) of non-fat dry milk. Blots were developed using the luminol reagent (Pierce Biotechnology). Densitometric analysis was done using the Fluor-S MultiImager™ with Quantity One™ software (Bio-Rad). For examining sAPP-α, conditioned medium was collected following treatment according to a modified protocol from Chen and Fernandez (Chen et al., 2004). sAPP-α was extracted using 3K Nanosep centrifugal filters (Pall Life Sciences, Ann Arbor, Mich.) and protein concentrate was prepared for the aforementioned electrophoresis. […]

ADAM10 mRNA = assay: RT-PCR of ADAM10 mRNA in SweAPP N2a cells; type: cell-based, murine; details: various doses of EGCG, 8 h
Protocol: Analysis of murine ADAM10 was conducted according to previously published methods (Ehrhart et al., 2005; Park et al., 2001). Briefly, total RNA was isolated from SweAPP N2a cells and subjected to reverse transcription utilizing a commercially available kit (cDNA Cycle® kit; Invitrogen, Carlsbad, Calif.) according to the manufacturer's instructions on a Bio-Rad iCycler thermocycler. […] Thermocycler conditions consisted of an initial denaturing step at 95° C. for 15 min, followed by 35 cycles of 94° C. for 30 s, 50° C. for 1 min, and 72° C. for 1 min at, and a final extension step at 72° C. for 10 min. Resolution and analysis of PCR products (murine ADAM10: 881 bp, murine γ-actin: 357 bp) band densities was conducted by ethidium bromide-stained agarose gel electrophoresis and identified using UV transillumination by comparisons with molecular weight markers (Invitrogen). Samples that were not subjected to reverse transcription were run in parallel as negative controls to rule out DNA contamination as a template for PCR products (data not shown). A “no template control” was also included for each primer set as a further negative control (data not shown). Amplification of γ-actin was used to normalize for input cDNA.

[1] = IP 20 mg/kg daily for 60 days, ELISA

O=C(O[C@@H]1Cc2c(O)cc(O)cc2O[C@@H]1c1cc(O)c(O)c(O)c1)c1cc(O)c(O)c(O)c1 [EGCG, (−)-epigallocatechin-3-gallate]
elevation of α-secretase cleavage activity in brain (transgenic APPsw mice; IP 20 mg/kg daily for 60 days): 28%
sAPP-α in brain versus PBS (transgenic APPsw mice; IP 20 mg/kg daily for 60 days): markedly increased
α-CTF in brain versus PBS (transgenic APPsw mice; IP 20 mg/kg daily for 60 days): markedly increased
reduction of soluble Aβ1-42 level in brain (transgenic APPsw mice; [1]): ~50%
reduction of total Aβ1-42 level in brain (transgenic APPsw mice; [1]): ~25%
reduction of 4G8 immunoreactive and thioflavin S positive Aβ deposits (transgenic APPsw mice; IP, 14 months of age, across the three brain regions examined): 32-36%
decrease of insoluble 5 M guanidine-prepared Aβ levels (transgenic APPsw mice; IP, ELISA, FIG. 4C): approximately 26%
activity of β-secretase cleavage in brain (transgenic APPsw mice; in vivo, FIG. 4d): not decreases
TNF-α levels in cultured medium (TNF-α): no associated elevation
ADAM17 expression (ADAM17): no significant effects
ADAM10 mRNA levels (ADAM10 mRNA): no significant between-EGCG dose differences
